Measured values taken from paper PMC6882468 (Journal of Enzyme Inhibition and Medicinal Chemistry, 2019).

Assays:
[1] = tested on: NF-κB activation in RAW264.7 cells; experiment: Western blot of LPS-induced NF-κB activation; assay type: cell-based, Murine; details: RAW264.7, 2-h pre-treatment before LPS stimulation
Procedure: The cell in 96-well plates were treated as described above and then stimulated with LPS (200 ng/mL) for 24 h. The cells were harvested and lysed in an extraction lysis buffer (Beyotime Biotechnology, Shanghai, China) containing protease inhibitors. The protein concentration was determined using a BCA protein assay kit (Thermo Scientific, 23227). The whole cell lysates were separated by 10% sodium dodecyl sulphate-polyacrylamide gel electrophoresis and transferred to a nitrocellulose membrane. Each membrane was incubated with Tris-buffered saline (pH 7.6, containing 0.05% Tween-20 and 5% non-fat milk). The nitrocellulose membrane was incubated with the primary antibody against p-JNK1/2, JNK1/2, p-p38, p38, p-ERK1/2, ERK1/2, IκBa, NF-κB p65, COX-2, iNOS or β-Actin (Abcam, Cambridge, UK). Immunoreactive bands were detected by incubating with horseradish peroxidase-conjugated secondary antibodies, and visualised using enhanced chemiluminescence reagents (Bio-Rad, Hercules, CA).
Figure 5. Compound 6n inhibited LPS-induced NF-κB activation in RAW264.7 cells. […] The levels of NF-κB p65, IκB, and their phosphorylated forms were analysed using western blot.

[2] = tested on: DNFB-induced mouse model of allergic contact dermatitis; experiment: DNFB-induced mouse model of allergic contact dermatitis (ear swelling); assay type: in vivo, Male ICR mice; details: for Swelling degree / Inhibition (%) of ear swelling: mice; for Swelling degree: Mean ± SD, n = 6; for Inhibition (%) of ear swelling: vs model group
Procedure: Male ICR mice (20 ± 2 g) were obtained from the Experimental Animal Centre of Anhui Medical University (Hefei, China). The mice reared in a pathogen-free setting (23 ± 2 °C, 55 ± 5% humidity) with free access to water and pelleted food throughout the experimental cycle. All experimental procedures performed in accordance with guide for the Care and Use of Laboratory Animals (National Research Council, 1996) and were approved by the Experimental Animal Ethics Committee of Anhui University of Chinese Medicine (Hefei, China). After 7 days acclimatisation, the mice were randomly divided into control group, ACD model group, dexamethasone positive control group and 20 compound groups, six in each group. The control group and the model group were given the same dose of the vehicle, the positive control group was given dexamethasone 0.5 mg/kg, and the test compound groups were given compound 5 mg/kg, all of which were given by intragastric administration and were administered once a day for 6 days. Except for the control group, the 50 µL of 1% DNFB (in acetone/olive oil 4:1) was administered to the stripped epidermis, and repeated the next day. After 6 days of drug treatment, 10 µL of 1% DNFB acetone olive oil solution was applied on both sides of the right ear to stimulate inflammation, and equivalent acetone olive oil solution was applied on the left ear for comparison. […] Calculation was carried out according to the following equations. Swelling degree (mg) = MR – ML Inhibitory rate of ear swelling (%)=((MR – ML) model – (MR – ML) treated)/(MR – ML) model ×100% MR=Average weight of the right ear slices;ML= Average weight of the left ear slices […] Dexamethasone (DEX) at a p.o. dose of 0.5 mg/kg was employed as the positive control. After the mice were sacrificed, the swelling degree and inhibition rate were calculated by weighing the same part of both ears.

[3] = 5 mg/kg intragastric once a day for 6 days, ear slices weighed 24 h after DNFB challenge
[4] = 5 mg/kg intragastric once a day for 6 days
[5] = positive control 0.5 mg/kg intragastric once a day for 6 days

SMILES | Swelling degree [2, 3] [mg] | Inhibition (%) of ear swelling [2, 4] [%] | further results
Cc1ccc(S(=O)(=O)/C=C/C#N)cc1 [Bay 11e7082, reference compound] |  |  | LPS-induced IκB phosphorylation [1]: markedly decreased; accumulation of NF-κB p65 subunit in the nucleus [1]: lowered; cytosolic IκB [1]: increased
CC(=O)c1ccccc1C(=O)N1CCN(Cc2ccc(Cl)cc2)CC1 [Compound 6a, 1–(2-(4–(4-Chlorobenzyl)piperazine-1-carbonyl)phenyl)ethan-1-one] | 11.9 ± 3.7 | 27.4 | 
COc1ccc(CN2CCN(C(=O)c3ccccc3C(C)=O)CC2)cc1 [Compound 6b, 1–(2-(4–(4-Methoxybenzyl)piperazine-1-carbonyl)phenyl)ethan-1-one] | 12.0 ± 3.4 | 26.8 | 
CC(=O)c1ccccc1C(=O)N1CCN(Cc2ccc(C#N)cc2)CC1 [Compound 6c, 4-((4–(2-Acetylbenzoyl)piperazin-1-yl)methyl)benzonitrile] | 11.3 ± 4.0 | 31.1 | 
CC(=O)c1ccccc1C(=O)N1CCN(Cc2ccc(C(F)(F)F)cc2)CC1 [Compound 6d, 1–(2-(4–(4-(Trifluoromethyl)benzyl)piperazine-1-carbonyl)phenyl)ethan-1-one] | 12.5 ± 3.4 | 23.8 | 
CC(=O)c1ccccc1C(=O)N1CCN(Cc2ccc([N+](=O)[O-])cc2)CC1 [Compound 6e, 1–(2-(4–(4-Nitrobenzyl)piperazine-1-carbonyl)phenyl)ethan-1-one] | 13.0 ± 3.3 | 20.7 | 
CC(=O)c1ccccc1C(=O)N1CCN(Cc2ccc(Cl)cc2Cl)CC1 [Compound 6g, 1–(2-(4–(2,4-Dichlorobenzyl)piperazine-1-carbonyl)phenyl)ethan-1-one] | 12.9 ± 2.6 | 21.3 | 
CC(=O)c1ccccc1C(=O)N1CCN(Cc2ccccc2Cl)CC1 [Compound 6h, 1–(2-(4–(2-Chlorobenzyl)piperazine-1-carbonyl)phenyl)ethan-1-one] | 12.8 ± 4.1 | 21.9 | 
CC(=O)c1ccccc1C(=O)N1CCN(Cc2cccc(Cl)c2)CC1 [Compound 6i, 1–(2-(4–(3-Chlorobenzyl)piperazine-1-carbonyl)phenyl)ethan-1-one] | 12.0 ± 3.0 | 26.8 | 
CC(=O)c1ccccc1C(=O)N1CCN(Cc2ccccc2)CC1 [Compound 6k, 1–(2-(4-Benzylpiperazine-1-carbonyl)phenyl)ethan-1-one] | 13.0 ± 3.5 | 20.7 | 
CC(=O)c1ccccc1C(=O)N1CCN(Cc2ccc(C)cc2)CC1 [Compound 6l, 1–(2-(4–(4-Methylbenzyl)piperazine-1-carbonyl)phenyl)ethan-1-one] | 11.4 ± 3.2 | 30.5 | 
COc1ccc(CN2CCN(C(=O)c3ccccc3C(C)=O)CC2)c(OC)c1 [Compound 6m, 1–(2-(4–(2,4-Dimethoxybenzyl)piperazine-1-carbonyl)phenyl)ethan-1-one] | 11.6 ± 2.4 | 29.3 | 
COc1cccc(CN2CCN(C(=O)c3ccccc3C(C)=O)CC2)c1 [Compound 6o, 1–(2-(4–(3-Methoxybenzyl)piperazine-1-carbonyl)phenyl)ethan-1-one] | 13.0 ± 4.4 | 20.7 | 
CC(=O)c1ccccc1C(=O)N1CCN(Cc2ccc3c(c2)OCO3)CC1 [Compound 6p, 1–(2-(4-(Benzo[d][1,3]dioxol-5-ylmethyl)piperazine-1-carbonyl)phenyl)ethan-1-one] | 11.0 ± 3.2 | 32.9 | in vivo inhibitory activity, in words ([2]; p.o. 5 mg/kg, p < 0.01): significant inhibitory activity
CC(=O)c1ccccc1C(=O)N1CCN(Cc2ccc3c(c2)OCCO3)CC1 [Compound 6q, 1–(2-(4-((2,3-Dihydrobenzo[b][1,4]dioxin-6-yl)methyl)piperazine-1-carbonyl)phenyl)ethan-1-one] | 13.3 ± 2.6 | 18.9 | 
CC(=O)c1ccccc1C(=O)N1CCN(Cc2nc(C)c(C)nc2C)CC1 [Compound 6r, 1–(2-(4-((3,5,6-Trimethylpyrazin-2-yl)methyl)piperazine-1-carbonyl)phenyl)ethan-1-one] | 10.8 ± 3.5 | 34.1 | 
CC(=O)c1ccccc1C(=O)N1CCN(Cc2ccncc2)CC1 [Compound 6s, 1–(2-(4-(Pyridin-4-ylmethyl)piperazine-1-carbonyl)phenyl)ethan-1-one] | 12.9 ± 3.4 | 21.3 | 
C[C@@H]1C[C@H]2[C@@H]3CCC4=CC(=O)C=C[C@]4(C)[C@@]3(F)[C@@H](O)C[C@]2(C)[C@@]1(O)C(=O)CO [DEX, Dexamethasone, reference compound] |  |  | Inhibition (%) of ear swelling [2, 5]: 51.8%; Swelling degree [2, 5]: 7.9 ± 3.0 mg
